Assay results: patent US9061981B2, “Diphenyl substituted cyclohexane derivatives, useful as modulators of the estrogen receptors beta” (Acadia Pharmaceuticals Inc., priority 2011, dated 2015)
Like-named read-outs stand apart in the source and are kept apart here.

Key:
[1] = Bioavailability after intravenous and sublingual administration in male beagle dogs; format: in vivo; details: for half-life: 10 mg/kg
Method: In this example, the sublingual bioavailability of Compound 8 was evaluated after intravenous and sublingual doses in male beagle dogs. The test compound was dosed at 1 and 10 mg/kg through intravenous and sublingual routes, respectively. Plasma samples were collected 10 min, 20 min, 30 min, 45 min, 1 hour, 2 hours, 4 hours, 8 hours, 12 hours and 24 hours post dose. Plasma levels were determined by LC-MS/MS analysis. A pre-study standard curve was analyzed to determine the specificity, range and lower limit of quantification of the LC-MS/MS method. The study samples were treated identically to the standards. Pharmacokinetic parameters were estimated by a non-compartmental model using WinNonlin v4.1 software.

MCP-1 = assay: ELISA for MCP-1 in PBMCs after 6OHDA lesion; format: in vivo, rat; details: 6OHDA rats, blood day 7 post-surgery
Method: (§1) Thus, Compound 8 was assessed to determine whether ERβ agonist treatment might alter the inflammatory profile following bilateral 6OHDA lesions of the SN. ELISAs for tumor necrosis factor α (TNFα), monocyte chemotactic protein 1 (MCP-1 aka CCL2), interleukin-6 (IL-6), and interleukin-1β were conducted in peripheral blood mononuclear cells (PBMCs) and brain tissue homogenates from sham or 6OHDA treated animals. […] Both TNFα and MCP-1 were elevated in PBMCs from 6OHDA animals (data not shown). Thus, these two markers were chosen for further examination. […] Treatment with Compound 8 prevented the rise in TNFα in both brain and PBMCs (FIG. 6). MCP-1 was elevated in PBMCs following 6OHDA when blood was taken on day 7 post-surgery, but not in brain homogenates taken on day 14 (following behavioral testing). The increase in MCP-1 in PBMCs was not prevented by Compound 8 treatment, even though the behavioral profile was normal. Thus, TNFα might be a maker of an inflammatory pathway triggered by 6OHDA infusion and prevented by treatment with an ERβ agonist in a manner that also prevents motor deficits and dopamine neuron loss in the substantia nigra.

[2] = Brain to plasma ratio in rats; format: in vivo
TNFα = assay: ELISA for TNFα in PBMCs and brain homogenate after 6OHDA lesion; format: in vivo, rat; details: 6OHDA rats
Method: as §1

Taxol-induced allodynia = assay: Taxol-induced neuropathy model; format: in vivo, male SD rats; details: 2 hours post-dose
Method: Neuropathy was induced in male SD rats by 4×1 mg/kg consecutive daily doses of taxol as described (Naguib M, Diaz P, Xu J J, Astruc-Diaz F, Craig S, Vivas-Mejia P, Brown D L. MDA7: a novel selective agonist for CB2 receptors that prevents allodynia in rat neuropathic pain models. Br J. Pharmacol. 2008 December; 155(7):1104-16). The presence of tactile allodynia (von Frey filament 50% response threshold of <5 g) was confirmed prior to inclusion in the study. Drugs were administered sub-cutaneously (s.c.) except gabapentin was given intra-peritoneally (i.p.). Doses are given in mg/kg. * p<0.05.
Allodynia was assessed by applying a light tactile stimulus (Von Frey hairs) to the plantar surface of the surgical paw until the 50% threshold was established. A positive response was recorded if the paw was sharply withdrawn. Eight VonFrey hairs were used (3.61, 3.84, 4.08, 4.31, 4.56, 4.74, 4.93 and 5.18). MPE (%) was calculated as [(Rdrug−Rveh)/(Rsham−Rveh)]*100% where Rveh was 4 and Rsham was 13. Repeat dosing (FIG. 10C) was performed by administering the indicated doses of Compound 8 once daily via the s.c. route. Efficacy was measured 2 hours post-dose.

[3] = test system: L5/L6 spinal nerve ligation; assay: Spinal nerve ligation model of neuropathic pain; format: in vivo, male Sprague-Dawley rats; details: s.c.
Method: Spinal nerve ligation of the L5/L6 nerve was done as originally described by Kim and Chung, using male Sprague-Dawley rats. Allodynia was assessed by applying a light tactile stimulus (Von Frey hairs) to the plantar surface of the surgical paw until the 50% threshold is established. A positive response is recorded if the paw is sharply withdrawn. Eight VonFrey hairs were used (3.61, 3.84, 4.08, 4.31, 4.56, 4.74, 4.93 and 5.18).

[4] = dog intravenous 1 mg/kg vs parameters observed in rats

In the case of `Oc1ccc(C2(c3ccccc3F)CCC(F)(F)CC2)cc1` [Compound 8, 4-(4,4-Difluoro-1-(2-fluorophenyl)cyclohexyl)phenol], the “Cmax increase compared to rats” value [1, 4] is reported as 2 fold, the “clearance decrease compared to rats” value [1, 4] is reported as 2 fold and the “volume of distribution decrease compared to rats” value [1, 4] is reported as 2 fold. For the same molecule, the half-life ([1]; male, beagle, dog, plasma, dog, sublingual 10 mg/kg, read-out: average half-life (converted)) was 2.08 ± 0.5 h, the half-life ([1]; male, beagle, dog, plasma, dog, sublingual, as summarised, read-out: half life (converted)) was 2 h and the bioavailability ([1]; male, beagle, plasma, other: sublingual, dog, sublingual 10 mg/kg vs intravenous 1 mg/kg, read-out: overall percent bioavailability following sublingual dose) was 44%. For the same molecule, the clearance ([1]; male, beagle, plasma, dog, intravenous 1 mg/kg) was 47 mL/min/kg, the Cmax ([1]; male, beagle, plasma, dog, intravenous 1 mg/kg, read-out: average maximum concentration (Cmax)) was 738 ± 199 ng/mL and the Vd ([1]; male, beagle, plasma, dog, intravenous 1 mg/kg, read-out: volume of distribution) was 3.5 ± 0.9 L/kg. For the same molecule, the Cmax ([1]; male, beagle, plasma, dog, sublingual 10 mg/kg, read-out: Cmax) was 1060 ± 110 ng/mL, the “6OHDA-induced increase of MCP-1 in PBMCs” value (MCP-1) was “not prevented” and the “brain to plasma ratio” value [2] was “good brain to plasma ratio”. The “6OHDA-induced increase of TNFα in PBMCs and brain” value (TNFα) was “blocked this increase”, the “efficacy on repeat dosing” value (Taxol-induced allodynia; once daily s.c.) was “maintained over 5 days” and the “effect on Taxol-induced allodynia” value (Taxol-induced allodynia; s.c. (gabapentin i.p.), Compound 8 at 10 and 30 mg/kg) was “essentially complete reversal”. The “allodynia (Von Frey 50% threshold)” value [3] was “reverses allodynia”.
